The text below walks through data of US20260131009A1, “BIFUNCTIONAL PI3K-ALPHA INHIBITORS AND USES THEREOF” (Relay Therapeutics, Inc., priority 2021, published 2026).

pIC50: −log10 of the molar value.

One assay addresses PI3Kα (Homo sapiens, UniProt P42336, H1047R). Put plainly: ADP-Glo IC50 assay. Format: biochemical. Conditions: class symbols; key not given.
Another assay deals with MCF10A. Put plainly: MCF10A IC50 assay. Format: cell-based. Conditions: Homo sapiens, MCF-10A; class symbols; key not given. In short, it runs like this: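 MCF10A cells overexpressing hotspot PIK3CA mutations were seeded at 5,000 per well in supplemented DMEM/F12 and adhered overnight (37 °C, 5% CO₂). Compounds were added acoustically as 12-dose 1:3 series, in duplicate, for 2 hours. Cells were lysed 60 min, then incubated 4 hours at room temperature with CisBio phospho-AKT (Ser473) HTRF antibodies and read on an Envision 2105. IC₅₀ for AKT phosphorylation came from Genedata software and was reported as binned categories.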

Chain of PI3Kα (P42336 whole entry H1047R): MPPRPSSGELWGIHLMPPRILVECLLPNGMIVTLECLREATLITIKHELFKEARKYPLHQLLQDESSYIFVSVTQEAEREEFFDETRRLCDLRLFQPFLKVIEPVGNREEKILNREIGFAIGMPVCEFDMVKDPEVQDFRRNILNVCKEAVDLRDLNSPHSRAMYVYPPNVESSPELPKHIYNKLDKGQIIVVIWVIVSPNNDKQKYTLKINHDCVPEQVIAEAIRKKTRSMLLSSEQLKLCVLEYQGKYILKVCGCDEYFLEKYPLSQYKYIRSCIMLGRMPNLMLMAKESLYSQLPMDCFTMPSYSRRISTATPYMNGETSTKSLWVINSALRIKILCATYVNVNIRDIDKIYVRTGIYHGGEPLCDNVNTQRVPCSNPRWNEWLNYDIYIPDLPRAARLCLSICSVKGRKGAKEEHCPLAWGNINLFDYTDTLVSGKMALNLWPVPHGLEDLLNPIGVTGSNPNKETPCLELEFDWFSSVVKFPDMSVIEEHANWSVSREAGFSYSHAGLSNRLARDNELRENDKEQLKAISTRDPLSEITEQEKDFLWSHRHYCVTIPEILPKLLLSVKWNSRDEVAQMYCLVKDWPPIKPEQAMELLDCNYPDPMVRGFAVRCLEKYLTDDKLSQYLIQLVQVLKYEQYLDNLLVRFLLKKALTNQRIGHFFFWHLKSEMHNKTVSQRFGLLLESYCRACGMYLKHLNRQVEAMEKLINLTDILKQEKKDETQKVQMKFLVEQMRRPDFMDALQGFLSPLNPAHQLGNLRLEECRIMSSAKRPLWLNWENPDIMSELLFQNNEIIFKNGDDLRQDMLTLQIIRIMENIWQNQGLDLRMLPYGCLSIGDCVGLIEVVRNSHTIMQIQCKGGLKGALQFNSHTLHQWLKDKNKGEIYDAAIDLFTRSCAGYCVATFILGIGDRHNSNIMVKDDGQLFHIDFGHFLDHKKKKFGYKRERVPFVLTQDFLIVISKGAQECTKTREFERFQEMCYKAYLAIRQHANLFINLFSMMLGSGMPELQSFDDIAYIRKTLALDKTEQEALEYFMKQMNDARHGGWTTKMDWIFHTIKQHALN
Chain of PI3Kα (P27986 whole entry partner): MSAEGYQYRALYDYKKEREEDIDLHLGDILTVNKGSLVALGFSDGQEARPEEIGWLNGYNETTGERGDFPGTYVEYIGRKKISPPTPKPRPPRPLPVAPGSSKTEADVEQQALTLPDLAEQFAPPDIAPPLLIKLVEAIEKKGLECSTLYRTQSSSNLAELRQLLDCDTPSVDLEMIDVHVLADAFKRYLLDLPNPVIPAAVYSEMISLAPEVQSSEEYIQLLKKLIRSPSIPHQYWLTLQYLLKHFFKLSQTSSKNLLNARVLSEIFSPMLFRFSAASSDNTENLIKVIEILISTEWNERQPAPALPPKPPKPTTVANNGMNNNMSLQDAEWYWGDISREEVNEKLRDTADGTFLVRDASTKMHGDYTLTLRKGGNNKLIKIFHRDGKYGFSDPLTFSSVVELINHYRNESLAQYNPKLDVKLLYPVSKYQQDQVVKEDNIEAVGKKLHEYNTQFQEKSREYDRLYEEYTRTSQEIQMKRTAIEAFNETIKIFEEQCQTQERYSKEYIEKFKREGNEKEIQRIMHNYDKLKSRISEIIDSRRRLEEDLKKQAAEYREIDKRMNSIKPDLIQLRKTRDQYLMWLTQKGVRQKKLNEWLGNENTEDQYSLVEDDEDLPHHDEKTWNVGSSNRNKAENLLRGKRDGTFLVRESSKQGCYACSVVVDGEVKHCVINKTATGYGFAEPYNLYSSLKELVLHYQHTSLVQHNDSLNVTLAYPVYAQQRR

With `Cc1ccccc1Nc1ncc(C(=O)NCCCCCCCNc2ccc3c(c2)C(=O)N(C2CCC(=O)NC2=O)C3=O)cc1NC(=O)c1csc2ccccc12` (stereo not shown) [Example I-39], the pIC50 (commonly the IC50 on a negative log10 scale, so that one unit is a factor of ten) is 6.30 to 7.00 at PI3Kα and 4.44 to 5.00 in the assay with MCF10A.
As for `Cc1ccccc1Nc1ncc(C(=O)NCCOCCOCCOCCOCCOCCC(=O)N[C@H](C(=O)N2C[C@H](O)C[C@H]2C(=O)N[C@@H](C)c2ccc(-c3scnc3C)cc2)C(C)(C)C)cc1NC(=O)c1csc2ccccc12` [Example I-11], the pIC50 against PI3Kα is 5.00 to 6.00; in the assay with MCF10A, 4.44 to 5.00.
On to `Cc1ccccc1Nc1ncc(C(=O)NCCCCCCCCCC(=O)O)cc1NC(=O)c1csc2ccccc12` [Example I-25], for which the pIC50 against PI3Kα was greater than 7.00; in the assay with MCF10A it was 5.30 to 6.00.
The like results for `O=C(O)CCCCCCCCCNC(=O)c1cnc(Nc2cc(F)ccc2Cl)c(NC(=O)c2csc3ccccc23)c1` [Example I-72] were, in that order, greater than 7.00 and 4.44 to 5.00.
As for `CCCCCCCCCCCCNC(=O)c1cnc(Nc2ccccc2C)c(NC(=O)c2csc3ccccc23)c1` [Example I-28], the pIC50 is 5.00 to 6.00 at PI3Kα and 4.44 to 5.00 in the assay on MCF10A.
The like results for `Cc1ccccc1Nc1ncc(C(=O)NCCCCCNc2cccc3c2C(=O)N(C2CCC(=O)NC2=O)C3=O)cc1NC(=O)c1csc2ccccc12` (stereo not shown) [Example I-22] were, in that order, 6.30 to 7.00 and 4.44 to 5.00.
For the molecule `Cc1ccccc1Nc1ncc(C(=O)NCCCCCCCCCNc2cccc3c2C(=O)N(C2CCC(=O)NC2=O)C3=O)cc1NC(=O)c1csc2ccccc12` (stereo not shown) [Example I-31], the pIC50 at PI3Kα is 6.30 to 7.00; with MCF10A, 4.44 to 5.00.
`Cc1ccccc1Nc1ncc(C(=O)NCCCCCCCCCNC(=O)c2ccc3c(c2)CN(C2CCC(=O)NC2=O)C3=O)cc1NC(=O)c1csc2ccccc12` (stereo not shown) [Example I-2]: the pIC50 was 6.00 to 6.30 at PI3Kα and 4.44 to 5.00 with MCF10A.
In the case of `Cc1ccccc1Nc1ncc(C(=O)NCCOCCOCCOCCC(=O)N[C@H](C(=O)N2C[C@H](O)C[C@H]2C(=O)N[C@@H](C)c2ccc(-c3scnc3C)cc2)C(C)(C)C)cc1NC(=O)c1csc2ccccc12` [Example I-4], the pIC50 against PI3Kα is 5.00 to 6.00; in the assay with MCF10A, 4.44 to 5.00.
The like results for `Cc1cc(Br)c2oc(N3CCN(C(=O)CCCCCCCNC(=O)c4cnc(Nc5ccccc5C)c(NC(=O)c5csc6ccccc56)c4)CC3)cc(=O)c2c1` [Example I-87] were, in that order, 6.30 to 7.00 and greater than 6.00.
In the same order, the values of `Cc1cc(Br)c2oc(N3CCN(C(=O)CCCCCCCCNC(=O)c4cnc(Nc5ccccc5C)c(NC(=O)c5csc6ccccc56)c4)CC3)cc(=O)c2c1` [Example I-78] are 6.30 to 7.00 and 4.44 to 5.00.
Turning to `Cc1ccccc1Nc1ncc(C(=O)NCCCCCCCCCNc2ccc3c(c2)C(=O)N(C2CCC(=O)NC2=O)C3=O)cc1NC(=O)c1csc2ccccc12` (stereo not shown) [Example I-12], the pIC50 was 6.30 to 7.00 on PI3Kα and 4.44 to 5.00 in the assay on MCF10A.
Turning to `Cc1ccccc1Nc1ncc(C(=O)NCCCCCNc2ccc3c(c2)C(=O)N(C2CCC(=O)NC2=O)C3=O)cc1NC(=O)c1csc2ccccc12` (stereo not shown) [Example I-17], the values for the negative logarithm of the IC50 (pIC50) against PI3Kα and in the assay on MCF10A were greater than 7.00 and 5.00 to 5.30, respectively.
Consider `Cc1ccccc1Nc1ncc(C(=O)NCCCCCCCCCC(=O)N[C@H](C(=O)N2C[C@H](O)C[C@H]2C(=O)N[C@@H](C)c2ccc(-c3scnc3C)cc2)C(C)(C)C)cc1NC(=O)c1csc2ccccc12` [Example 1-7], for which the pIC50 on PI3Kα was 6.30 to 7.00; in the assay with MCF10A, 4.44 to 5.00.
Regarding `Cc1ccccc1Nc1ncc(C(=O)NCCCCCCCCCC(N)=O)cc1NC(=O)c1csc2ccccc12` [Example I-24], the values for the pIC50 at PI3Kα and with MCF10A were greater than 7.00 and 5.30 to 6.00, respectively.
The like results for `Cc1ccccc1Nc1ncc(C(=O)NCCCCCC(=O)NCc2ccc3c(c2)CN(C2CCC(=O)NC2=O)C3=O)cc1NC(=O)c1csc2ccccc12` (stereo not shown) [Example I-9] were, in that order, 6.30 to 7.00 and 4.44 to 5.00.
The like results for `Cc1ccccc1Nc1ncc(C(=O)NCCCCCCCC(=O)NCc2ccc3c(c2)CN(C2CCC(=O)NC2=O)C3=O)cc1NC(=O)c1csc2ccccc12` (stereo not shown) [Example I-6] were, in that order, 6.30 to 7.00 and 4.44 to 5.00.
